How the values were obtained:
[1] = target: T1, DNMT3A (Homo sapiens, UniProt Q9Y6K1); assay: HotSpot radioisotope filter-binding methyltransferase assay, 10-dose; assay type: biochemical
T1 construct: recombinant, Reaction Biology Corp. HotSpot assay

[2] = target: FRAP1 (mTOR) (Homo sapiens, UniProt P42345); assay: FRET-based Z-LYTE kinase assay, […] concentrations; assay type: biochemical

T1 sequence (Q9Y6K1 whole entry, looked up): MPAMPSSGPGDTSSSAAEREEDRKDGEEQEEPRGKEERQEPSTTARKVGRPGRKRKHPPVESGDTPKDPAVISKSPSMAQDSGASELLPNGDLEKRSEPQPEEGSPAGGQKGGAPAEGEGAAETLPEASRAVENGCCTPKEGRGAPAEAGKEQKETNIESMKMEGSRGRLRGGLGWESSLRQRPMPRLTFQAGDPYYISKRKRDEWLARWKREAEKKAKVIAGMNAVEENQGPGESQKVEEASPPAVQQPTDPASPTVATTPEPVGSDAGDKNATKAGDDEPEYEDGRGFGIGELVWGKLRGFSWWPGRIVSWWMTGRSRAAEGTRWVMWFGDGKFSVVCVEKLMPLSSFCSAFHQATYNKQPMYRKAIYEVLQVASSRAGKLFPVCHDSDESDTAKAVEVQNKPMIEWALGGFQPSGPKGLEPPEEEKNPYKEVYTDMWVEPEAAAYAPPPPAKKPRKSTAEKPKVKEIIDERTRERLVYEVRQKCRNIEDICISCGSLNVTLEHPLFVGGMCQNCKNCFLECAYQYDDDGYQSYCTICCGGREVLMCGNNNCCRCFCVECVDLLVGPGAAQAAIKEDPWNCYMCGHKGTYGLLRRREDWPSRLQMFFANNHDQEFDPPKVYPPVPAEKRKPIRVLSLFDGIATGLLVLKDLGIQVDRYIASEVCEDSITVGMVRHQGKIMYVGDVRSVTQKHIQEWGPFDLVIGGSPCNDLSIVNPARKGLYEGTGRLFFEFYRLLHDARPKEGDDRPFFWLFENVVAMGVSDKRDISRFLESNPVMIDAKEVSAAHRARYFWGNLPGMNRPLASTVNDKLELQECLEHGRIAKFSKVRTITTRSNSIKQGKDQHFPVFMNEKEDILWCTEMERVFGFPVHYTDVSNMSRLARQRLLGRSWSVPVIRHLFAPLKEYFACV

- IC50 [1]: > 150 µM
- IC50 [2]: ~39 µM
SMILES: CCCC(=O)OCCc1ccc(O)c(O)c1 [CHEMBL1950046, 3,4-Dihydroxyphenethyl butyrate]

Reference: publication PMC7695371, “Mimetics of extra virgin olive oil phenols with anti-cancer stem cell activity” (Aging (Albany NY), 2020)
